Test results published in PubChem BioAssay AID2060358 (Molecular Pharmacology Branch, DTP, NCI, 2025).
“And” between values parts separate entries of the source, which are not always exact repeats. Identical values can stand only once. Blank lines part the entries; values can stand above or below the compound they belong to.

Tested on: 254851-301-R-J1-PDC spheroids, viability % test/control
Assay: Anticancer human tumor 254851-301-R-J1-PDC patient-derived colon carcinoma cell line growth inhibition [TAK]
Conditions: spheroids with HUVEC and MSC; for viability, T/C: stronger effect = lower value
Source text: Combinatorial screen of targeted agents with TAK-243 and ipatasertib in multi-cell type tumor spheroids
A high-throughput screen of multi-cell type tumor spheroids was designed to identify active combinations of targeted small molecules and TAK-243 or ipatasertib. Complex spheroids include a stromal component modeled by human endothelial cells (HUVEC) and fibroblasts modeled by human mesenchymal stem cells (MSCs). The concentration ranges selected for each drug and investigational agent were based upon clinically achievable concentrations if the clinical Cmax of the agent was known.
Compounds. The drugs and investigational agents: TAK-243 (785004), ipatasertib (767898), everolimus (733504), selumetinib (741078), bortezomib (756655), trametinib (758246), ixazomib (758254), vemurafenib (761431), dabrafenib (764134), sapanisertib (764658), alpelisib (765974), and copanlisib (816437), were obtained from the National Cancer Institute (NCI) Developmental Therapeutics Program Chemical Repository. The FDA-approved anticancer drug set is available from the NCI Developmental Therapeutics Program. […] The stock solutions were prepared in dimethyl sulfoxide (DMSO, Sigma-Aldrich, St. Louis, MO, cat. D2650) at 800-fold the tested concentration and stored at -70 degrees C prior to their use. All drugs and investigational agents were tested over a range starting from a high concentration at or near the clinical Cmax and decreasing in half-log increments. If the clinical Cmax for an agent had not been determined, the highest concentration tested was 10 microM.
NCI60 Cell Culture. NCI60 cell lines were obtained from the NCI Developmental Therapeutics Program Tumor Repository. For each lot of cells, the Repository performed Applied Biosystems AmpFLSTR Identifiler testing with PCR amplification to confirm consistency with the published Identifier STR profile for each cell line. Cells were kept in continuous culture for no more than 20 passages. The optimal seeding densities for each of the cell lines at each time point assessed were determined prior to performing the concentration response studies. Briefly, the NCI60 human tumor lines were grown as monolayers in RPMI 1640 medium supplemented with 10% FBS and 2 mmol/L L-glutamine.
An additional 2 lines were from the NCI60 cell line panel including melanomas, MALME-3M and SK-MEL-2. Pooled donor human umbilical vein endothelial cells (HUVEC, Lonza, cat. CC-2519) and human mesenchymal stem cells (hMSC, Lonza, cat. PT-2501) were purchased from Lonza (Walkersville, MD).
PDMR cell lines were grown in complete medium (DC medium): Dulbecco's modified Eagle's medium (DMEM)/F12 supplemented with 5% fetal bovine serum (FBS), 2 mM L-glutamine, 100 U/mL penicillin and 100 µg/ml streptomycin, 0.4 µg/ml hydrocortisone, 10 ng/ml epidermal growth factor (EGF) recombinant human protein, 24 µg/mL adenine, and 0.1 mg/mL primocin. During culture from frozen stock vials, PDMR cells were cultured in the same medium containing 10 µM Y-27632 (see Table 3). The PDCs were cultured in complete DMEM/F12 media without 10 microM Y-27632 dihydrochloride for at least two passages prior to the screen. The pooled donor HUVEC and hMSC were cultured in endothelial cell growth medium 2 (PromoCell, Heidelberg, Germany, cat. C-22011) and mesenchymal stem cell growth medium 2 (PromoCell, cat. C-28009), respectively. For all experiments, HUVEC and hMSC were used at passages </=5.
For the pre-screen, cell seeding densities were determined from a titration spanning the range from 5,000 to 313 cells per well. The mct-spheroids including 60% malignant cells, 25% HUVEC and 15% MSC dispensed as a mixture into U-bottom Ultra-Low Attachment 384-well plates (Corning, NY)
High-throughput Drug Combination Screening.
Prior to their inoculation into 384-well plates, malignant cells, HUVEC, and hMSC were removed from T flasks using TrypLE express (Thermo Fisher Scientific, cat. 12605036) and harvested by centrifugation for 5 min at 233 x g. […]
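Note: spheroids exposed to drugs for seven days before viability readout.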

SMILES: CCCS(=O)(=O)Nc1ccc(F)c(C(=O)c2c[nH]c3ncc(-c4ccc(Cl)cc4)cc23)c1F + CC(C)NCC(C(=O)N1CCN(c2ncnc3c2C(C)CC3O)CC1)c1ccc(Cl)cc1
IC50 (curve of first compound, second compound 0.3 µM): > 100000 nM | IC50 (curve of first compound, second compound 0.949 µM): > 100000 nM | IC50 (curve of first compound, second compound 3 µM): > 100000 nM | IC50 (curve of first compound, second compound 9.49 µM): > 100000 nM | IC50 (curve of first compound, second compound 30 µM): > 100000 nM | viability, T/C (second compound 0.3 µM, first compound 0.316 µM): 92.5% | viability, T/C (second compound 0.3 µM, first compound 1 µM): 90.3% | viability, T/C (second compound 0.3 µM, first compound 3.16 µM): 63.9% | viability, T/C (second compound 0.3 µM, first compound 10 µM): 68.4% | viability, T/C (second compound 0.3 µM, first compound 31.6 µM): 38.1% | viability, T/C (second compound 0.3 µM, first compound 100 µM): 85.7% | viability, T/C (second compound 0.949 µM, first compound 0.316 µM): 99.2% | viability, T/C (second compound 0.949 µM, first compound 1 µM): 95.1% | viability, T/C (second compound 0.949 µM, first compound 3.16 µM): 79.4% | viability, T/C (second compound 0.949 µM, first compound 10 µM): 64.8% | viability, T/C (second compound 0.949 µM, first compound 31.6 µM): 30.2% | viability, T/C (second compound 0.949 µM, first compound 100 µM): 76.8% | viability, T/C (second compound 3 µM, first compound 0.316 µM): 79.7% | viability, T/C (second compound 3 µM, first compound 1 µM): 88.8% | viability, T/C (second compound 3 µM, first compound 3.16 µM): 70.3% | viability, T/C (second compound 3 µM, first compound 10 µM): 67.9% | viability, T/C (second compound 3 µM, first compound 31.6 µM): 20.2% | viability, T/C (second compound 3 µM, first compound 100 µM): 82.5% | viability, T/C (second compound 9.49 µM, first compound 0.316 µM): 95.3% | viability, T/C (second compound 9.49 µM, first compound 1 µM): 85.3% | viability, T/C (second compound 9.49 µM, first compound 3.16 µM): 71% | viability, T/C (second compound 9.49 µM, first compound 10 µM): 51.5% | viability, T/C (second compound 9.49 µM, first compound 31.6 µM): 52.3% | viability, T/C (second compound 9.49 µM, first compound 100 µM): 83% | viability, T/C (second compound 30 µM, first compound 0.316 µM): 91.5% | viability, T/C (second compound 30 µM, first compound 1 µM): 92.8% | viability, T/C (second compound 30 µM, first compound 3.16 µM): 82.6% | viability, T/C (second compound 30 µM, first compound 10 µM): 51.8% | viability, T/C (second compound 30 µM, first compound 31.6 µM): 26.7% | viability, T/C (second compound 30 µM, first compound 100 µM): 80.7%

SMILES: CC(C)CC(NC(=O)CNC(=O)c1cc(Cl)ccc1Cl)B1OC(=O)CC(CC(=O)O)(C(=O)O)O1 (stereo not given)
viability, T/C (compound 0.000316 µM): 110% and 112% | viability, T/C (compound 0.001 µM): 110% | viability, T/C (compound 0.00316 µM): 96.8% and 99.7% | viability, T/C (compound 0.01 µM): 94.7% and 102% | viability, T/C (compound 0.0316 µM): 78.2% | viability, T/C (compound 0.1 µM): 18.6% and 24.4% | IC50 (curve of compound): 53.2 nM and 58.1 nM

Further lines, with some results ahead:

IC50 (curve of compound): 42.5 nM and 40.3 nM
SMILES: CC(C)n1nc(-c2ccc3oc(N)nc3c2)c2c(N)ncnc21
viability, T/C (compound 0.000316 µM): 125% and 110% | viability, T/C (compound 0.001 µM): 104% and 109% | viability, T/C (compound 0.00316 µM): 89.8% and 90.4% | viability, T/C (compound 0.01 µM): 76.5% and 81.7% | viability, T/C (compound 0.0316 µM): 55.7% and 52.2% | viability, T/C (compound 0.1 µM): 34.5% and 34.2%

IC50 (curve of compound): > 10 nM
SMILES: CC(C)CC(NC(=O)C(Cc1ccccc1)NC(=O)c1cnccn1)B(O)O (stereo not given)
viability, T/C (compound 31.6 pM): 118% and 114% | viability, T/C (compound 0.0001 µM): 107% | viability, T/C (compound 0.000316 µM): 111% and 101% | viability, T/C (compound 0.001 µM): 98.9% and 100% | viability, T/C (compound 0.00316 µM): 98.5% and 99.1% | viability, T/C (compound 0.01 µM): 75.7% and 80.8%

IC50 (curve of compound): > 100000 nM
SMILES: CCCS(=O)(=O)Nc1ccc(F)c(C(=O)c2c[nH]c3ncc(-c4ccc(Cl)cc4)cc23)c1F
viability, T/C (compound 0.316 µM): 109% and 106% | viability, T/C (compound 1 µM): 93.3% and 90.5% | viability, T/C (compound 3.16 µM): 84.6% and 79.4% | viability, T/C (compound 10 µM): 72.3% and 77.4% | viability, T/C (compound 31.6 µM): 73.7% and 71.4% | viability, T/C (compound 100 µM): 63.9% and 73.8%

IC50 (curve of compound): 1510 nM and 1760 nM
SMILES: Cn1cnc2c(F)c(Nc3ccc(Br)cc3Cl)c(C(=O)NOCCO)cc21
viability, T/C (compound 0.00949 µM): 119% and 114% | viability, T/C (compound 0.03 µM): 120% and 117% | viability, T/C (compound 0.0949 µM): 105% and 117% | viability, T/C (compound 0.3 µM): 103% and 98.6% | viability, T/C (compound 0.949 µM): 76.3% and 84.4% | viability, T/C (compound 3 µM): 12.5% and 22.5%
